Results reported in US7772246B2 (Pfizer Inc., priority 2007, dated 2010).
Where two headings read alike, the source gives them in different places.

Columns and labels:
b-Raf [1] = biological target: T1, b-Raf (Homo sapiens, UniProt P15056); assay: Raf biochemical assay (in vitro kinase assay, 32-P transfer from ATP to Mek1); settings: full-length wild type b-Raf, Mek1 substrate; for inhibition at 1 µM: @ 1 μM compound, read-out: b-Raf % inhib @ 1 μM; for Ki: 25 μM ATP
T1 construct: Full-length wild type b-Raf is expressed in recombinant form and purified from bacterial or insect cells; made in house; host or cells: bacterial or insect cells
T1 sequence (P15056 whole entry): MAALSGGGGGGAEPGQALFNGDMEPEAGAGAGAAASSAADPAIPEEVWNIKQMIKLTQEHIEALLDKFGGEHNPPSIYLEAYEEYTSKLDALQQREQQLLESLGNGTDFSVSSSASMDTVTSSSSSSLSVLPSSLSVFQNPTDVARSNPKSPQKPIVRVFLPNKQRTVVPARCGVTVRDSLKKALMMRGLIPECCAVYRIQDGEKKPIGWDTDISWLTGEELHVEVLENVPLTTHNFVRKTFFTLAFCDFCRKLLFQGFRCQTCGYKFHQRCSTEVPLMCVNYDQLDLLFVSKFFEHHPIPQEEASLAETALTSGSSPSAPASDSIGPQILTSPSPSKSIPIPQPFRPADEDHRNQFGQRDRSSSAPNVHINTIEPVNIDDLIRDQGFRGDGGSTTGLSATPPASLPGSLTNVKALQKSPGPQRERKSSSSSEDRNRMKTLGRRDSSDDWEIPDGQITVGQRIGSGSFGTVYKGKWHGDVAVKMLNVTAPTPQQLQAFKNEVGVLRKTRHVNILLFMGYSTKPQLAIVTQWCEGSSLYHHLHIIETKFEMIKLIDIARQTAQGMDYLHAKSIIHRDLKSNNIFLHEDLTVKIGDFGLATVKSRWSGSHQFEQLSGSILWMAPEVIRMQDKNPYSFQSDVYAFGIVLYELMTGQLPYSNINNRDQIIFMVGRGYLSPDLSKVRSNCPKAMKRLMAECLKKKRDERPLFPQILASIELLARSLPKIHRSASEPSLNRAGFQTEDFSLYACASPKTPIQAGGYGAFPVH
Experimental: Compounds of the present invention were evaluated for potency against b-Raf using an in vitro kinase assay. Raf kinase activity is measured in vitro by determining transfer of radiolabeled 32-P phosphate from ATP to the specific Raf substrate Mek1. Full-length wild type b-Raf is expressed in recombinant form and purified from bacterial or insect cells. Recombinant Mek1 is purified from E. coli bacterial cells. In one assay format (designated G1), the full-length wild type Mek1 is used as the b-Raf substrate. In a second assay format (designated G2), the full-length K97R Mek1 mutant is used as the b-Raf substrate.
In vitro kinase assays are performed in solution containing the following; 50 mM Hepes (pH 7.4), 5 nM b-Raf, 0.8 μM Mek1, 10 mM MgCl2, 25 μM ATP, 0.002% (v/v) Tween-20, 5 μg/mL leupeptin, 1.2 mM DTT, 2% (v/v) DMSO, 0.2-1.0 μCi [γ-^32P]ATP per well.
The assays are performed in wells of a 96 well polypropylene round bottom plate, each well containing 43.5 μL assay mix and 1.5 μL inhibitor compound or DMSO vehicle. 15 μL of b-Raf mix is added and the plate is shaken on a plate shaker and preincubated for 10 minutes at ambient temperature. The reaction is started by addition of 15 μL ATP mix and shaking. The reaction is terminated after 40 minutes by addition of 25 μL 0.5 M EDTA (pH 7.4).
60 μL of the stopped reaction is transferred to a well of a 96-well nylon 66 Biodyne A membrane Silent Screen filter plate (Nalge/Nunc: 256081). The wells are filtered and washed five times with 0.85% phosphoric acid. The filter is placed in a tray with about 50 mL 0.85% phosphoric acid and gently rotated for 10 minutes on an orbital shaker. The procedure is repeated once with fresh 0.85% phosphoric acid. Five samples of 0.5 μL of ATP mix are also spotted onto filter paper for calculation of specific activity. The filters are air dried for one hour and sandwiched between cellophane wrap on an Amersham Biosciences Storage Phosphor Screen and developed at least over night. The image is read using a Molecular Dynamics Storm 840 phosphoimager. Volumes of spots are calculated using ImageQuant5.1.
Raf kinase activity is calculated from the specific activity of [32-P] ATP, 32-P incorporation into Mek1, and the concentration of b-Raf.

b-Raf [2] = biological target: T2, b-Raf (Homo sapiens, UniProt P15056, V600E); assay: Raf cellular assay (phospho-Mek1/2 ELISA in A2058 cells); format: cell-based; settings: human melanoma A2058 cells (b-Raf mutation), Mek1/2 Ser217/221 phosphorylation, 1 hour incubation, read-out: pMEK IC50
T2 construct: endogenous in cells; host or cells: A2058 human melanoma cells
T2 sequence (P15056 whole entry V600E): as the sequence (P15056 whole entry) above, with V600E counted along it
Procedure, shortened: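 A2058 melanoma cells (B-Raf mutant), seeded overnight in 10% FBS DMEM, were exposed to compounds (11-point 1:3 series, duplicate) for 1 h at 37 °C. Lysates were captured on anti-Mek1-coated plates and Mek1/2 Ser217/221 phosphorylation was read by anti-phospho-Mek1/2 ELISA, HRP/TMB, 450 nm.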

| Structure (SMILES) | inhibition at 1 µM (b-Raf [1]) | Ki (b-Raf [1]) | IC50 (b-Raf [2]; Table 2) | IC50 (b-Raf [2]; Table 3) |
| --- | --- | --- | --- | --- |
| CCn1cc(CNc2nccc(-c3cn(C(C)C)nc3-c3cnc4[nH]ccc4c3)n2)cn1 [Example D-10, N-[(1-ethyl-1H-pyrazol-4-yl)methyl]-4-[1-isopropyl-3-(1H-pyrrolo[2,3-b]pyridin-5-yl)-1H-pyrazol-4-yl]pyrimidin-2-amine] | 100% | 2 nM | 923 nM | – |
| Cc1nc2ncc(-c3nn(C(C)C)cc3-c3ccnc(NC[C@H](C)O)n3)cn2c1C [Example B-9, (2S)-1-(4-(3-(2,3-dimethylimidazo[1,2-a]pyrimidin-6-yl)-1-isopropyl-1H-pyrazol-4-yl)pyrimidin-2-ylamino)propan-2-ol] | – | 2 nM | 9260 nM | – |
| C[C@H](O)CNc1nccc(-c2cn(C)nc2-c2cnc3[nH]cc(Cl)c3c2)n1 [Example E-1, (2S)-1-(4-(3-(3-chloro-1H-pyrrolo[2,3-b]pyridin-5-yl)-1-methyl-1H-pyrazol-4-yl)pyrimidin-2-ylamino)propan-2-ol] | – | 1.5 nM | 223 nM | – |
| CCN1CC(CNc2nccc(-c3cn(C(C)C)nc3-c3cnc4[nH]ccc4c3)n2)CC1=O [Example D-14, 1-ethyl-4-[({4-[1-isopropyl-3-(1H-pyrrolo[2,3-b]pyridin-5-yl)-1H-pyrazol-4-yl]pyrimidin-2-yl}amino)methyl]-pyrrolidin-2-one] | 99% | 4.8 nM | 3140 nM | – |
| CNc1ccc(-c2nn(C(C)C)cc2-c2ccnc(NC[C@H](C)O)n2)cn1 [Example B-2, (2S)-1-(4-(1-isopropyl-3-(6-(methylamino)pyridin-3-yl)-1H-pyrazol-4-yl)pyrimidin-2-ylamino)propan-2-ol] | 97% | 12 nM | 8670 nM | – |
| C[C@H](O)CNc1nccc(-c2cn(CC#N)nc2-c2cnc3[nH]ccc3c2)n1 [Example C-1, [4-[2-((S)-2-Hydroxy-propylamino)-pyrimidin-4-yl]-3-(1H-pyrrolo[2,3-b]pyridin-5-yl)-pyrazol-1-yl]-acetonitrile] | – | 3.9 nM | 483 nM | – |
| C[C@H](O)CNc1nccc(-c2cn(CC3(C)COC3)nc2-c2cnc3[nH]ccc3c2)n1 [Example B-15, (2S)-1-(4-(1-((3-methyloxetan-3-yl)methyl)-3-(1H-pyrrolo[2,3-b]pyridin-5-yl)-1H-pyrazol-4-yl)pyrimidin-2-ylamino)propan-2-ol] | – | 6.2 nM | 3250 nM | – |
| CC(C)n1cc(-c2ccnc(NCc3ccccn3)n2)c(-c2cnc3[nH]ccc3c2)n1 [Example D-3, 4-(1-isopropyl-3-(1H-pyrrolo[2,3-b]pyridin-5-yl)-1H-pyrazol-4-yl)-N-(pyridin-2-ylmethyl)pyrimidin-2-amine] | 93% | 8.3 nM | 1810 nM | – |
| CNc1ncc(-c2nn(C(C)C)cc2-c2ccnc(NC[C@H](C)O)n2)cc1C [Example B-4, (2S)-1-(4-(1-isopropyl-3-(5-methyl-6-(methylamino)pyridin-3-yl)-1H-pyrazol-4-yl)pyrimidin-2-ylamino)propan-2-ol] | 74% | 272 nM | 3370 nM | – |
| Cc1cc2cc(-c3nn(C(C)C)cc3-c3ccnc(NC[C@H](C)O)n3)cnc2[nH]1 [Example B-7, (2S)-1-(4-(1-isopropyl-3-(2-methyl-1H-pyrrolo[2,3-b]pyridin-5-yl)-1H-pyrazol-4-yl)pyrimidin-2-ylamino)propan-2-ol] | – | 10.3 nM | 4010 nM | – |
| CC(C)n1cc(-c2ccnc(NC[C@H](C)O)n2)c(-c2cnc3[nH]ncc3c2)n1 [Example D-1, (2S)-1-(4-(1-isopropyl-3-(1H-pyrazolo[3,4-b]pyridin-5-yl)-1H-pyrazol-4-yl)pyrimidin-2-ylamino)propan-2-ol] | – | 3.3 nM | 1980 nM | – |
| CC(C)n1cc(-c2ccnc(NC[C@H](C)O)n2)c(-c2cnc3ccn(C)c3n2)n1 [Example B-10] | – | 5 nM | 5960 nM | – |
| C[C@H](O)CNc1nccc(-c2cn(CC3(C)COC3)nc2-c2cnc3[nH]cc(Cl)c3c2)n1 [Example E-4, (2S)-1-(4-(3-(3-chloro-1H-pyrrolo[2,3-b]pyridin-5-yl)-1-((3-methyloxetan-3-yl)methyl)-1H-pyrazol-4-yl)pyrimidin-2-ylamino)propan-2-ol] | – | 1.9 nM | 188 nM | – |
| CC(C)(CO)n1cc(-c2ccnc(NCCC#N)n2)c(-c2cnc3c(c2)CCN3)n1 [Example B-22, 3-({4-[3-(2,3-dihydro-1H-pyrrolo[2,3-b]pyridin-5-yl)-1-(2-hydroxy-1,1-dimethylethyl)-1H-pyrazol-4-yl]pyrimidin-2-yl}amino)propanenitrile] | – | – | – | 26.3 nM |
| COc1ccc(Nc2nccc(-c3cn(CC(F)F)nc3-c3cnc4[nH]ccc4c3)n2)cn1 [Example B-81, 4-[1-(2,2-difluoroethyl)-3-(1H-pyrrolo[2,3-b]pyridin-5-yl)-1H-pyrazol-4-yl]-N-(6-methoxypyridin-3-yl)pyrimidin-2-amine] | – | – | – | 71.5 nM |

Next, values leading:

| inhibition at 1 µM (b-Raf [1]) | Ki (b-Raf [1]) | IC50 (b-Raf [2]; Table 2) | IC50 (b-Raf [2]; Table 3) | Structure (SMILES) |
| --- | --- | --- | --- | --- |
| 100% | 0.7 nM | 510 nM | – | C[C@H](O)CNc1nccc(-c2cn(CC(F)F)nc2-c2cnc3[nH]ccc3c2)n1 [Example B-14, (2S)-1-(4-(1-(2,2-difluoroethyl)-3-(1H-pyrrolo[2,3-b]pyridin-5-yl)-1H-pyrazol-4-yl)pyrimidin-2-ylamino)propan-2-ol] |
| – | 0.2 nM | 7 nM | – | Cc1c[nH]c2ncc(-c3nn(C(C)C)cc3-c3ccnc(NC[C@H](C)O)n3)cc12 [Example B-5, (2S)-1-(4-(1-isopropyl-3-(3-methyl-1H-pyrrolo[2,3-b]pyridin-5-yl)-1H-pyrazol-4-yl)pyrimidin-2-ylamino)propan-2-ol] |
| 99% | 1.4 nM | 1520 nM | – | CC(C)n1cc(-c2ccnc(NCC3CCOC3)n2)c(-c2cnc3[nH]ccc3c2)n1 [Example D-12, 4-[1-isopropyl-3-(1H-pyrrolo[2,3-b]pyridin-5-yl)-1H-pyrazol-4-yl]-N-(tetrahydrofuran-3-ylmethyl)pyrimidin-2-amine] |
| 100% | 0.7 nM | 2990 nM | – | COCCNc1nccc(-c2cn(C(C)C)nc2-c2cnc3[nH]ccc3c2)n1 [Example D-13, 4-[1-isopropyl-3-(1H-pyrrolo[2,3-b]pyridin-5-yl)-1H-pyrazol-4-yl]-N-(2-methoxyethyl)-pyrimidin-2-amine] |
| – | < 0.1 nM | 7 nM | – | CC(C)n1cc(-c2ccnc(NC[C@H](C)O)n2)c(-c2cnc3[nH]cc(Cl)c3c2)n1 [Example B-11, (2S)-1-(4-(3-(3-chloro-1H-pyrrolo[2,3-b]pyridin-5-yl)-1-isopropyl-1H-pyrazol-4-yl)pyrimidin-2-ylamino)propan-2-ol] |
| 100% | 0.8 nM | 1320 nM | – | Cc1nc(CNc2nccc(-c3cn(C(C)C)nc3-c3cnc4[nH]ccc4c3)n2)c(C)o1 [Example D-11, N-[(2,5-dimethyl-1,3-oxazol-4-yl)methyl]-4-[1-isopropyl-3-(1H-pyrrolo[2,3-b]pyridin-5-yl)-1H-pyrazol-4-yl]pyrimidin-2-amine] |
| 100% | < 0.1 nM | 149 nM | – | CC(C)n1cc(-c2ccnc(NCCn3cccn3)n2)c(-c2cnc3[nH]ccc3c2)n1 [Example D-4, 4-[1-isopropyl-3-(1H-pyrrolo[2,3-b]pyridin-5-yl)-1H-pyrazol-4-yl]-N-[2-(1H-pyrazol-1-yl)ethyl]pyrimidin-2-amine] |
